What was measured:
[1] = system: artificially expressed HSP27 protein; experiment: ELISA binding experiment between HSP27 protein and biotin-conjugated small molecules; conditions: 100 ng/mL biotin-conjugated small molecule; HSP27 coated in gradient from 100 μg/mL
Method: 1. The bacteria solution of BL21 (DE3) host bacteria of artificially expressed HSP27 was subjected to ultrasonication, and then coated in gradient on a ELISA plate with an initial concentration of 100 μg/mL (based on the protein) in an amount of 50 μL/well;
2. 100 ng/mL of small molecules conjugated biotin was added into the resultant ELISA plate in an amount of 50 μL/well, mixed well on a shaker, and incubated at 37° C. for 30 min in the dark; the ELISA plate was washed with an ELISA plate washing machine for 4 times, or the liquid in the wells of the ELISA plate was manually removed by shaking out, each well was filled with diluted buffer solution, and then shaken out the liquid to dry again, and washing as repeated in this way for 4 times;
3. HRP-labeled streptavidin conjugate was added into the ELISA plate, and the reaction was carried out at 37° C. for 30 min; washing was performed in the same way as the above step for 4 times.
4. TMB solution was added into corresponding microwells according to the required amount of 100 μL per well, and the plate was shaken on the ELISA plate shaker for 30 s, and subjected to color development at room temperature for 10 min;
5. 50 μL of 2 mol/L sulfuric acid was added to each well to terminate the reaction, and the plate was shaken on the ELISA plate shaker for 30 s, and then the absorbance at 450 nm of each well was read with a microplate reader, and the results were judged (see FIG. 2 for the results).

[2] = system: HSP27 polyclonal antiserum; experiment: ELISA identification of artificially expressed HSP27 protein with HSP27 polyclonal antiserum; type: binding; conditions: HSP27 1 μg/mL
Method: The artificially expressed HSP27 protein at an optimal concentration was selected as a coating antigen, and coated on the ELISA plate in an amount of 50 μL/well. The plate was placed in a 37° C. constant temperature incubator for reaction for 2 h, washed with PBST for 4 times, and air-dried at room temperature. BSA with a mass fraction of 1% was added as a blocking solution in amount of 200 μL/well, and reaction was carried out at a constant temperature of 37° C. for 1 h. The resultant plate was washed with PBST for 4 times, and air-dried at room temperature. Then, HSP27 polyclonal antiserum with gradient concentrations was added at 50 μL/well, a negative control (NC) was set, and the plate was held at 37° C. for 30 min, and washed for 4 times. 50 μL of goat anti-mouse secondary antibody (1:1000) was added to each well, and the plate was held at 37° C. for 30 min, and then washed for 4 times. The color development reaction was carried out with TMB color developing solution in an amount of 100 μL/well, and 10 minutes later, the reaction was terminated with 50 μL of 2 mol/L H2SO4. The absorbance of each well was read at 450 nm with a microplate reader.

CC(CCc1ccc(O)cc1)NCC(O)c1ccc(O)cc1 (racemic) [Ractopamine]
binding to HSP27 (ELISA, absorbance at 450 nm, FIG. 2) [1]: can bind to HSP27

CC(C)(C)NCC(O)c1cc(Cl)c(N)c(Cl)c1 (stereo not shown) [Clenbuterol]
binding to HSP27 (ELISA, absorbance at 450 nm, FIG. 2) [1]: can bind to HSP27

CC(Cc1ccc(O)cc1)NCC(O)c1cc(O)cc(O)c1 (stereo not shown) [Fenoterol]
binding to HSP27 (ELISA, absorbance at 450 nm, FIG. 2) [1]: can bind to HSP27

artificially expressed HSP27 protein: HSP27 CDS cloned in pLSLa vector, expressed in BL21 (DE3) with IPTG, purified by agarose resin column
absorbance at 450 nm ([2]; serum dilution ratio 5000): 4.00 | absorbance at 450 nm ([2]; serum dilution ratio 10000): 3.92 | absorbance at 450 nm ([2]; serum dilution ratio 20000): 4.00 | absorbance at 450 nm ([2]; serum dilution ratio 40000): 3.77 | absorbance at 450 nm ([2]; serum dilution ratio 80000): 3.50 | absorbance at 450 nm ([2]; serum dilution ratio 160000): 2.60 | absorbance at 450 nm ([2]; serum dilution ratio 320000): 1.63 | absorbance at 450 nm ([2]; serum dilution ratio 640000): 0.97 | absorbance at 450 nm ([2]; serum dilution ratio 1280000): 0.67 | absorbance at 450 nm ([2]; serum dilution ratio 2560000): 0.51

Source: US10859587B2, “Application of artificially expressed HSP27 protein in detecting a residue of a β2-adrenergic receptor agonist-based drug” (HENAN ACADEMY OF AGRICULTURAL SCIENCE, priority 2016, dated 2020)
